The values below come from patent publication US20070088031A1, “Novel chemical compounds” (priority 2003, published 2007).

pIC50: −log10 of the molar value. A value given as a limit tells only on which side of the number the result lay.

The target of the experiment is GSK-3β (Homo sapiens, UniProt P49841). Briefly: GSK-3 kinase scintillation proximity assay (SPA) with biotinylated glycogen synthase peptide. It is filed as biochemical. As to conditions: 20 nM kinase, 2.5 uM ATP, 40 minutes at room temperature; pIC50 = -log IC50 in Molar; read-out: GSK-3 inhibition. From the text:
The phosphorylated biotinylated peptide is then captured onto streptavidin coated scintillation proximity assay (SPA) beads from Amersham Technology, where the signal from the ^33P is amplified via the scintillant contained in the beads.
GSK-3β, is commercially available or may be cloned and expressed in E coli using standard techniques to produce soluble, active protein. The production of active protein involves purification in two steps using Metal Chelate and Ion Exchange Chromatography. Protein eluting from Ion Exchange provides >90% pure product that may then be concentrated for use in high throughput screening.
The kinase was assayed at a concentration of 20 nM final in 100 mM HEPES, pH 7.2 containing 10 mM magnesium chloride, 0.1 mg/mL bovine serum albumin, 1 mM dithiothreitol, 0.3 mg/mL heparin, 2.8 uM peptide substrate, 2.5 uM ATP, and 0.2 uCi/well γ^33P]-ATP. After 40 minutes incubation at room temperature, the reaction was stopped by addition of 100 mM EDTA and […] in 100 mM HEPES, pH7.2 followed by an additional solution of diluted Streptavidin coated SPA beads in PBS, pH 7.2 to give a final concentration of 0.25 mg of beads per assay well in a 96-well microtiter plate.
10 mM stock solutions of the compounds of the invention in 100% DMSO are generated as a first step in the screening process. The second step involves the creation of dose response plates where these compounds are diluted 10-fold in 100% DMSO to 1 mM concentrations and subsequently serially diluted 3-fold in 100% DMSO across the plate by automated liquid handling such that the final top concentration of inhibitor is 0.033 mM in the 30 uL kinase assay. The third step involves the creation of the assay plates. This is achieved by transferring 1 uL of the compounds to assay plates by automated liquid handling. The fourth step is to perform the assay as described and count the resulting plates in the Packard TopCount NXT microplate scintillation and luminescence counter. The final step is data acquisition and analysis where IC50 values are generated for each compound by normalizing curve data to the equation 100*(U1−C2)/(C1−C2) (where U1 is the cpm value, C2 is the background, and C1 is the maximum number of counts), then fitting the normalized data to the equation y=Vmax*(1−(x/(K+x))). The IC50 values were converted to pIC50 values, i.e., -log IC50 in Molar concentration.
For orientation: SPA uses beads or plates that emit light when radiolabelled molecules are held near them.

GSK-3β, sequence (P49841 whole entry, species assumed): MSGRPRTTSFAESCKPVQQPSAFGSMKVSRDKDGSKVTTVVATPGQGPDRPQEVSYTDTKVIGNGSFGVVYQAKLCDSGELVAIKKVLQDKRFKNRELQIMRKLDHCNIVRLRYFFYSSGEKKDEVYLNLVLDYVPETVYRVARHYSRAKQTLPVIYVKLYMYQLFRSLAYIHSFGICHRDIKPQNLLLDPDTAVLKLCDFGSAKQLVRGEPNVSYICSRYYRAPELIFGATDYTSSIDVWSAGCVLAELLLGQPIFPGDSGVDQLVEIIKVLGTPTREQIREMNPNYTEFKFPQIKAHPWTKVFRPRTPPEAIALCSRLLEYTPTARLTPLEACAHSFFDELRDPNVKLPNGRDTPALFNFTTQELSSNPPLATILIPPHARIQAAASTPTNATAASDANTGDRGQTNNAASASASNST

Consider `COc1ccc(-c2cc3c(NC(=O)CCSC)ncnc3o2)cc1` [Example 4, N-[6-(4-Methoxy-phenyl)-furo[2,3-d]pyrimidin-4-yl]-3-methylsulfanyl-propionamide], for which the pIC50 was 6.00 to 7.00. In the case of `COc1ccc(-c2cc3c(NC(=O)C4CCCCC4)ncnc3o2)cc1` [Example 6, Cyclohexanecarboxylic acid [6-(4-methoxy-phenyl)-furo[2,3-d]pyrimidin-4-yl]-amide] it was < 6.00; in that of `COc1ccc(-c2cc3c(NC(=O)C4CCCC4)ncnc3o2)cc1` [Example 3, Cyclopentanecarboxylic acid [6-(4-methoxy-phenyl)-furo[2,3-d]pyrimidin-4-yl]-amide], 7.00 to 8.00. Turning to `O=C(Nc1ncnc2oc(-c3cccnc3)cc12)C1CCCC1` [Example 20, Cyclopentanecarboxylic acid (6-pyridin-3-yl-furo[2,3-d]pyrimidin-4-yl)-amide], the pIC50 was > 8.00.
